Laboratory results published in US20160032327A1, “PROCESS FOR CULTURING DEINOCOCCUS BACTERIA” (DEINOVE, priority 2012, published 2016).
Read-outs that look alike come from different tables or passages of the source.

Legend:
M36-7D_21 [1] = settings: no growth after 24 or 96 h on agar plates at 45° C.
Protocol: (§1) Deinococcus geothermalis M36-7D—21 and MX61E—04 were cultivated in 20% starch effluent pH 5 containing 15 mM NH4Cl and 5.30 mM K2HPO4
(§2) 5 ml of the cultures were treated during one hour with different concentration of H2O2 (20, 50,100, 150 and 200 mM) at room temperature or at 45° C.
(§3) The control sample corresponds to untreated sample (0 mM H2O2).
(§4) The control and treated samples were then spread on agar plates containing 10% effluent starch and incubated during 24 and 96 hours at 45° C.
(§5) The inhibitory concentration (IC expressed in mM) is the hydrogen peroxide concentration from which there was no growth after 24 or 96 h.

MX6-1E_04 = settings: no growth after 24 or 96 h on agar plates at 45° C.
Protocol: as §1, §2, §3, §4, §5

[2] = tested on: Deinococcus geothermalis M36-7D—21
Protocol: The growth of Deinococcus geothermalis M36-7D—21 was performed in microplates in CMG medium containing Peptone 2 g/L; Yeast Extract 5 g/L; Glucose 55 mM (10 g/L); MOPS acid 40 mM; NH4Cl 20 mM; NaOH 10 mM; KOH 10 mM; CaCl2.2H2O 0.5 μM; Na2SO4.10H2O 0.276 mM; MgCl2.6H2O 0.528 mM; (NH4)6(Mo7)O24.4H2O 3 nM; H3BO3 0.4 μM; CoCl2.6H2O 30 nM; CuSO4.5H2O 10 nM; MnCl2 0.25 μM; ZnSO4.7H2O 10 nM; D-Biotin 1 μg/L; Niacin (nicotinic acid) 1 μg/L; Pyridoxin (pyridoxal HCl ou vitamine B6) 1 μg/L; Thiamin HCl (vitamine B1); FeCl3 20 μM; Sodium Citrate.2H2O 20 μM; K2HPO4 5,7 mM.
The addition of 100 mM hydrogen peroxide was made at TO (begin of the growth) or at the exponential phase.
The growth was monitored by measuring the OD600 nm.

M36-7Dwt = tested on: M36-7Dwt
Text: (§6) And the “Inhibitory Concentration of an oxidizer towards a Deinococcus or a related bacterium” (“ICD”) refers to the minimum concentration of said oxidizer in the culture medium that inhibits or reduces the growth of the Deinococcus. The IC may be easily ascertained for each microorganism or each strain thereof, and for each oxidizer, by implementing test cultures. For example, the strain of interest may be cultivated in several parallel cultures, each of said cultures containing an increased concentration of the oxidizer. After 2 or 3 days, the cultures are observed to measure the microbial growth and thereby to determine the IC.
(§7) Preculture was done for 3 days in CMG 1%. After checking the purity of the culture, cell pellet was washed three times in sterile water and then DO was adjusted to 2.
(§8) Hydrogen peroxide stock solution: H2O2 (30%wt solution, SIGMA ref. 216763, stored at 4° C.)
(§9) Preparation of the H2O2 range:
(§10) Dispense 180 μl of media into culture wells (200 μl into blank wells)
(§11) Add 20 μL of washed cell pellet at an optical density (600 nm) of 2 into well to be inoculated.
(§12) Gently add 50 μL of mineral oil on the well surface to limit evaporation.
(§13) Microplate was incubated for 3 days at 30 or 45° C. according to the optimal growth temperature indicated in the first part. Growth was monitored by an absorbance measure.

Escherichia coli K12 = settings: E. coli, 30° C., CMG medium
Text: as §6, §7, §8, §9, §10, §11, §12, §13

M36-7D_21 [3] = tested on: M36-7D_21
Text: as §6, §7, §8, §9, §10, §11, §12, §13

[4] = tested on: Saccharomyces cerevisiae 2640; settings: S. cerevisiae, 30° C., CMG medium
Text: as §6, §7, §8, §9, §10, §11, §12, §13

Zymomonas mobilis DSM424 = settings: Z. mobilis, 30° C., CMG medium
Text: as §6, §7, §8, §9, §10, §11, §12, §13

M36-7D_17 = tested on: M36-7D_17
Text: as §6, §7, §8, §9, §10, §11, §12, §13

[5] = tested on: Deinococcus radiodurans R1
Text: as §6, §7, §8, §9, §10, §11, §12, §13

[6] = one hour treatment at room temperature

SMILES: OO [hydrogen peroxide]
- Inhibitory concentration (mM) of hydrogen peroxide (M36-7D_21 [1]; one hour treatment at 45° C.): 200 mM
- Inhibitory concentration (mM) of hydrogen peroxide (M36-7D_21 [1]; [6]): >200 mM
- Inhibitory concentration (mM) of hydrogen peroxide (MX6-1E_04; one hour treatment at 45° C.): 50 mM
- Inhibitory concentration (mM) of hydrogen peroxide (MX6-1E_04; [6]): 100 mM
- Effect on growth of M36-7D—21 (OD600 nm) ([2]; 100 mM hydrogen peroxide added at TO (begin of the growth)): did not affect the growth
- Effect on growth of M36-7D—21 (OD600 nm) ([2]; 100 mM hydrogen peroxide added at the exponential phase): did not affect the growth
- IC: concentration of hydrogen peroxide from which there was no growth after 3 days of incubation (M36-7D_18; M36-7D_18, CMG medium, 3 days): 200 mM
- Concentration of hydrogen peroxide in the presence of which the strain is able to grow (M36-7D_18; modified D. geothermalis M36-7D (M36-7D_18)): up to 190 mM
- Concentration of hydrogen peroxide in the presence of which the strain is able to grow (M36-7Dwt; D. geothermalis M36-7Dwt): up to 190 mM
- IC: concentration of hydrogen peroxide from which there was no growth after 3 days of incubation (M36-7Dwt; M36-7Dwt, 45° C., CMG medium, 3 days): 200 mM
- IC: concentration of hydrogen peroxide from which there was no growth after 3 days of incubation (Escherichia coli K12): 10 mM
- IC: concentration of hydrogen peroxide from which there was no growth after 3 days of incubation (M36-7D_21 [3]; M36-7D_21, CMG medium, 3 days): 200 mM
- Concentration of hydrogen peroxide in the presence of which the strain is able to grow (M36-7D_21 [3]; modified D. geothermalis M36-7D (M36-7D_21)): up to 190 mM
- IC: concentration of hydrogen peroxide from which there was no growth after 3 days of incubation [4]: 20 mM
- IC: concentration of hydrogen peroxide from which there was no growth after 3 days of incubation (Zymomonas mobilis DSM424): 10 mM
- IC: concentration of hydrogen peroxide from which there was no growth after 3 days of incubation (M36-7D_17; M36-7D_17, CMG medium, 3 days): 200 mM
- Concentration of hydrogen peroxide in the presence of which the strain is able to grow (M36-7D_17; modified D. geothermalis M36-7D (M36-7D_17)): up to 190 mM
- Concentration of hydrogen peroxide in the presence of which the strain is able to grow ([5]; D. radiodurans R1): up to 190 mM
- IC: concentration of hydrogen peroxide from which there was no growth after 3 days of incubation ([5]; D. radiodurans R1, 30° C., CMG medium, 3 days): 200 mM
